Laboratory results as given in US5354676A, “Recombinant modified thermostable NAD-dependent dehydrogenases and process for their production” (The University of Bristol, priority 1989, dated 1994).

What was measured:
[1] = target: T1, Bacillus stearothermophilus L-lactate dehydrogenase variant MVS (102-5 QKP→MVS) (Geobacillus stearothermophilus, UniProt P00344, K87V/P88S/Q86M); experiment: biochemical; conditions: pH 6, read-out: stimulation in kcat/Km by FBP
T1 construct: made in house; host or cells: E. coli TG2, vector pKK223-3
T1 sequence (P00344 whole entry Q86M/K87V/P88S): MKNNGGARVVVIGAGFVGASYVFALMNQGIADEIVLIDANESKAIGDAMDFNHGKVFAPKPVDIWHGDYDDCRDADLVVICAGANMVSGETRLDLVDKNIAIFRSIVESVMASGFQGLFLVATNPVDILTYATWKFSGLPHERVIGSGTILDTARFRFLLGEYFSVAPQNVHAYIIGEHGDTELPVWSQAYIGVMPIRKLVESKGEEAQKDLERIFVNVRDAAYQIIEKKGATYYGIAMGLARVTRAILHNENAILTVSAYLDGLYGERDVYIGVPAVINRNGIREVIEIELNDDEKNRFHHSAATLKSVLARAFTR
Protocol: (§1) Steady-state reaction rates were determined by following the change in A340 due to the consumption of NADH. […] The buffer for all experiments was 100rmM triethanolamine-HC1/NaOH,pH 6.

[2] = target: T2, Bacillus stearothermophilus NAD-dependent L-lactate dehydrogenase, wild type (WT) (Geobacillus stearothermophilus, UniProt P00344); experiment: biochemical; conditions: pH 6, read-out: stimulation in kcat/Km by FBP
T2 construct: made in house; host or cells: E. coli
T2 sequence (P00344 whole entry): as the sequence (P00344 whole entry Q86M/K87V/P88S) above, with M86Q, V87K, S88P counted along it
Protocol: as §1

[3] = target: T3, Bacillus stearothermophilus L-lactate dehydrogenase variant MVS/GG (102-5 QKP→MVS and 235-6 AA→GG) (Geobacillus stearothermophilus, UniProt P00344, A222G/A223G/K87V/P88S/Q86M); experiment: biochemical
T3 construct: made in house; host or cells: E. coli TG2, vector pKK223-3
T3 sequence (P00344 whole entry Q86M/K87V/P88S/A222G/A223G, the tested form may be a part): as the sequence (P00344 whole entry Q86M/K87V/P88S) above, with A222G, A223G counted along it
Protocol: as §1

[4] = target: T4, Bacillus stearothermophilus L-lactate dehydrogenase variant GG (235-6 AA→GG) (Geobacillus stearothermophilus, UniProt P00344, A222G/A223G); experiment: biochemical; conditions: pH 6, read-out: stimulation in kcat/Km by FBP
T4 sequence (P00344 whole entry A222G/A223G, the tested form may be a part): as the sequence (P00344 whole entry Q86M/K87V/P88S) above, with M86Q, V87K, S88P, A222G, A223G counted along it
Protocol: as §1

[5] = target: T4, Bacillus stearothermophilus L-lactate dehydrogenase variant GG (235-6 AA→GG); conditions: No FBP, pH 6
Protocol: as §1

Row | Compound | fold induction at 5000 µM [1] | fold induction at 5000 µM [2] | fold induction at 5000 µM ([3]; pH 6, read-out: stimulation in kcat/Km by FBP) | fold induction at 5000 µM [4] | Km [5] | Km ([3]; MVS/GG, No FBP, pH 6)
1 | O=C(COP(=O)(O)O)[C@@H](O)[C@H](O)[C@H](O)COP(=O)(O)O [FBP, fructose-1,6-bisphosphate] | 100 | 50 | 16 | 60 |  | 
2 | CC(=O)C(=O)O [Pyruvate] |  |  |  |  | > 50 mM | > 50 mM
